In PubChem BioAssay (NCI):
Several values for one entry are separate records, joined by “and”; a condition that tells them apart may be missing. Equal values may be shown once.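 Dose response: 5 concentrations. Exposure: 48 h. Format: 96-well plates. Endpoint: linear interpolation; highest concentration if not reached. At the GI50, growth is halved. Definition used: TGI = concentration required for complete inhibition of growth.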

Key:
Assay in all cases: growth of human tumour cells (NCI), 48 h
HT29 colon = tested on: HT29 colon
TK-10 renal = tested on: TK-10 renal
MCF7 breast = tested on: MCF7 breast
EKVX NSCLC = tested on: EKVX NSCLC
RPMI-8226 leukemia = tested on: RPMI-8226 leukemia
UO-31 renal = tested on: UO-31 renal
CAKI-1 renal = tested on: CAKI-1 renal
SW-620 colon = tested on: SW-620 colon
HOP-62 NSCLC = tested on: HOP-62 NSCLC
NCI-H460 lung = tested on: NCI-H460 lung
NCI-H522 lung = tested on: NCI-H522 lung
U251 CNS = tested on: U251 CNS
LOX IMVI melanoma = tested on: LOX IMVI melanoma
K-562 leukemia = tested on: K-562 leukemia
M14 melanoma = tested on: M14 melanoma
786-0 renal = tested on: 786-0 renal
SNB-19 CNS = tested on: SNB-19 CNS
NCI/ADR-RES ovarian = tested on: NCI/ADR-RES ovarian
HCT-15 colon = tested on: HCT-15 colon
CCRF-CEM leukemia = tested on: CCRF-CEM leukemia
SK-MEL-5 melanoma = tested on: SK-MEL-5 melanoma
COLO 205 colon = tested on: COLO 205 colon
SK-OV-3 ovarian = tested on: SK-OV-3 ovarian
OVCAR-3 ovarian = tested on: OVCAR-3 ovarian
DU-145 prostate = tested on: DU-145 prostate
KM12 colon = tested on: KM12 colon
HS 578T breast = tested on: HS 578T breast
OVCAR-8 ovarian = tested on: OVCAR-8 ovarian
NCI-H23 lung = tested on: NCI-H23 lung
BT-549 breast = tested on: BT-549 breast
HCC-2998 colon = tested on: HCC-2998 colon
SNB-75 CNS = tested on: SNB-75 CNS
UACC-62 melanoma = tested on: UACC-62 melanoma
OVCAR-5 ovarian = tested on: OVCAR-5 ovarian
SF-539 CNS = tested on: SF-539 CNS
OVCAR-4 ovarian = tested on: OVCAR-4 ovarian
HCT-116 colon = tested on: HCT-116 colon
SR leukemia = tested on: SR leukemia
T-47D breast = tested on: T-47D breast
IGROV1 ovarian = tested on: IGROV1 ovarian
SK-MEL-2 melanoma = tested on: SK-MEL-2 melanoma
SF-268 CNS = tested on: SF-268 CNS
ACHN renal = tested on: ACHN renal
NCI-H226 lung = tested on: NCI-H226 lung
HOP-92 NSCLC = tested on: HOP-92 NSCLC
SK-MEL-28 melanoma = tested on: SK-MEL-28 melanoma
SN12C renal = tested on: SN12C renal
MDA-MB-231 breast = tested on: MDA-MB-231 breast
UACC-257 melanoma = tested on: UACC-257 melanoma
PC-3 prostate = tested on: PC-3 prostate
A549 NSCLC = tested on: A549 NSCLC
MDA-MB-435 = tested on: MDA-MB-435
SF-295 CNS = tested on: SF-295 CNS
A498 renal = tested on: A498 renal
MALME-3M melanoma = tested on: MALME-3M melanoma
MOLT-4 leukemia = tested on: MOLT-4 leukemia
RXF 393 renal = tested on: RXF 393 renal
HL-60(TB) leukemia = tested on: HL-60(TB) leukemia

## COC(=O)c1ccc2c(C(=Nc3ccc(N(C)C(=O)CN4CCN(C)CC4)cc3)c3ccccc3)c(O)[nH]c2c1
HT29 colon
  GI50: 1.22 µM
  TGI: 3.9 µM
TK-10 renal
  GI50: 4.63 µM and 19.2 µM
  TGI: 23.5 µM and > 100 µM
MCF7 breast
  GI50: 1.55 µM and 4.48 µM
  TGI: 13.6 µM and > 100 µM
EKVX NSCLC
  GI50: 10.6 µM and 49.6 µM
  TGI: > 100 µM
RPMI-8226 leukemia
  GI50: 2.73 µM and 5.97 µM
  TGI: 9.86 µM and 20.8 µM
UO-31 renal
  GI50: 1.2 µM and 0.739 µM
  TGI: 5.76 µM and > 34 µM
CAKI-1 renal
  GI50: 4.28 µM and 11.9 µM
  TGI: 25.3 µM and > 100 µM
SW-620 colon
  GI50: 1.87 µM
  TGI: 4.14 µM
HOP-62 NSCLC
  GI50: 1.36 µM and 2.32 µM
  TGI: 12.2 µM and > 100 µM
NCI-H460 lung
  GI50: 2.02 µM and 2.24 µM
  TGI: 4 µM and 4.96 µM
NCI-H522 lung
  GI50: 1.5 µM and 1.75 µM
  TGI: 3.67 µM and 5.77 µM
U251 CNS
  GI50: 1.44 µM and 1.77 µM
LOX IMVI melanoma
  GI50: 1.24 µM and 1.28 µM
  TGI: 3.09 µM and 2.75 µM
K-562 leukemia
  GI50: 0.224 µM and 0.466 µM
  TGI: > 100 µM
M14 melanoma
  GI50: 1.75 µM and 1.98 µM
  TGI: 3.56 µM and 3.98 µM
786-0 renal
  GI50: 1.93 µM and 1.47 µM
  TGI: 6.6 µM and 4.64 µM
SNB-19 CNS
  GI50: 2.6 µM and 3.55 µM
  TGI: > 100 µM
NCI/ADR-RES ovarian
  GI50: 14.4 µM and > 32.7 µM
  TGI: > 100 µM
HCT-15 colon
  GI50: 2.22 µM and 5.45 µM
  TGI: > 100 µM
CCRF-CEM leukemia
  GI50: 2.56 µM and 2.81 µM
  TGI: 16.7 µM and > 100 µM
SK-MEL-5 melanoma
  GI50: 3.94 µM and 2.32 µM
  TGI: 9.86 µM and 6.51 µM
COLO 205 colon
  GI50: 4.32 µM and 4.41 µM
  TGI: 46.4 µM
SK-OV-3 ovarian
  GI50: 12.3 µM and > 57.6 µM
  TGI: 44.1 µM and > 100 µM
OVCAR-3 ovarian
  GI50: 7.08 µM and 19.9 µM
  TGI: 16.1 µM and 47 µM
DU-145 prostate
  GI50: 3.22 µM and 6.14 µM
  TGI: 14.9 µM and > 100 µM
KM12 colon
  GI50: 0.066 µM and 0.073 µM
  TGI: 2.05 µM and 1.98 µM
HS 578T breast
  GI50: 0.546 µM and 0.648 µM
OVCAR-8 ovarian
  GI50: 2.31 µM and 2.43 µM
  TGI: 27.6 µM and > 100 µM
NCI-H23 lung
  GI50: 5.23 µM and 6.98 µM
  TGI: 28.4 µM and > 100 µM
BT-549 breast
  GI50: 6.6 µM and 11.7 µM
  TGI: 22 µM and 29.7 µM
HCC-2998 colon
  GI50: 11.2 µM and 7.26 µM
  TGI: 30.7 µM and 73.8 µM
SNB-75 CNS
  GI50: 0.385 µM and 0.32 µM
  TGI: 9.71 µM and 7.71 µM
UACC-62 melanoma
  GI50: 2.18 µM and 3.09 µM
  TGI: 5.09 µM and 21.4 µM
OVCAR-5 ovarian
  GI50: 1.73 µM and 6.75 µM
SF-539 CNS
  GI50: 0.597 µM and 1.4 µM
  TGI: 2.26 µM and 5.9 µM
OVCAR-4 ovarian
  GI50: 5.17 µM and 13.1 µM
  TGI: 59.6 µM and > 70.8 µM
HCT-116 colon
  GI50: 1.58 µM and 1.48 µM
  TGI: 3.06 µM and 2.97 µM
SR leukemia
  GI50: 2.5 µM
  TGI: > 44.7 µM
T-47D breast
  GI50: 3.66 µM and 16.7 µM
  TGI: 36.3 µM and > 100 µM
IGROV1 ovarian
  GI50: 0.839 µM and 0.967 µM
  TGI: 22.5 µM and > 100 µM
SK-MEL-2 melanoma
  GI50: 8.11 µM and 3.6 µM
  TGI: 19.1 µM and 8.86 µM
SF-268 CNS
  GI50: 1.79 µM and 2.29 µM
ACHN renal
  GI50: 1.58 µM and 2.51 µM
NCI-H226 lung
  GI50: 2.35 µM and 1.82 µM
  TGI: 24.5 µM and 59.9 µM
HOP-92 NSCLC
  GI50: 0.69 µM and 1.56 µM
  TGI: 12.7 µM and 15 µM
SK-MEL-28 melanoma
  GI50: 1.77 µM and 1.96 µM
  TGI: 3.35 µM and 3.5 µM
SN12C renal
  GI50: 1.23 µM and 0.959 µM
  TGI: 31.9 µM and > 87.6 µM
MDA-MB-231 breast
  GI50: 1.91 µM and 2.5 µM
  TGI: 4.11 µM and 6.96 µM
UACC-257 melanoma
  GI50: 1.83 µM and 1.54 µM
  TGI: 4.48 µM and 3.1 µM
PC-3 prostate
  GI50: 5.2 µM and 25.6 µM
  TGI: 53.2 µM and > 100 µM
A549 NSCLC
  GI50: 2.74 µM and 2.79 µM
  TGI: > 100 µM
MDA-MB-435
  GI50: 1.63 µM and 1.6 µM
  TGI: 3.09 µM and 3.05 µM
SF-295 CNS
  GI50: 4.46 µM and 10.8 µM
  TGI: 13.1 µM and > 56.9 µM
A498 renal
  GI50: 0.613 µM and 0.604 µM
  TGI: 5.52 µM and 10.1 µM
MALME-3M melanoma
  GI50: 1.37 µM and 1.44 µM
  TGI: 2.94 µM and 3.46 µM
MOLT-4 leukemia
  GI50: 2.21 µM and 2.74 µM
  TGI: 22.1 µM and > 100 µM
RXF 393 renal
  GI50: 0.683 µM and 0.572 µM
  TGI: 2.47 µM and 2.9 µM
HL-60(TB) leukemia
  GI50: 9.41 µM and 9.59 µM
  TGI: 32.3 µM and 32.1 µM
